Test results: PMC8617627, “Novel DYRK1A Inhibitor Rescues Learning and Memory Deficits in a Mouse Model of Down Syndrome” (Pharmaceuticals, 2021)
Where two headings read alike, the source gives them in different places.

What was measured:
Experiment in all cases: Kinase profile (33P ATP filter binding)
Assay type in all cases: biochemical
[1] = molecular target: CSK (Homo sapiens, UniProt P41240)
[2] = molecular target: T1, TTK (Homo sapiens, UniProt P33981); details: read-out: Remaining protein kinase activity
T1 sequence (P33981 1-857): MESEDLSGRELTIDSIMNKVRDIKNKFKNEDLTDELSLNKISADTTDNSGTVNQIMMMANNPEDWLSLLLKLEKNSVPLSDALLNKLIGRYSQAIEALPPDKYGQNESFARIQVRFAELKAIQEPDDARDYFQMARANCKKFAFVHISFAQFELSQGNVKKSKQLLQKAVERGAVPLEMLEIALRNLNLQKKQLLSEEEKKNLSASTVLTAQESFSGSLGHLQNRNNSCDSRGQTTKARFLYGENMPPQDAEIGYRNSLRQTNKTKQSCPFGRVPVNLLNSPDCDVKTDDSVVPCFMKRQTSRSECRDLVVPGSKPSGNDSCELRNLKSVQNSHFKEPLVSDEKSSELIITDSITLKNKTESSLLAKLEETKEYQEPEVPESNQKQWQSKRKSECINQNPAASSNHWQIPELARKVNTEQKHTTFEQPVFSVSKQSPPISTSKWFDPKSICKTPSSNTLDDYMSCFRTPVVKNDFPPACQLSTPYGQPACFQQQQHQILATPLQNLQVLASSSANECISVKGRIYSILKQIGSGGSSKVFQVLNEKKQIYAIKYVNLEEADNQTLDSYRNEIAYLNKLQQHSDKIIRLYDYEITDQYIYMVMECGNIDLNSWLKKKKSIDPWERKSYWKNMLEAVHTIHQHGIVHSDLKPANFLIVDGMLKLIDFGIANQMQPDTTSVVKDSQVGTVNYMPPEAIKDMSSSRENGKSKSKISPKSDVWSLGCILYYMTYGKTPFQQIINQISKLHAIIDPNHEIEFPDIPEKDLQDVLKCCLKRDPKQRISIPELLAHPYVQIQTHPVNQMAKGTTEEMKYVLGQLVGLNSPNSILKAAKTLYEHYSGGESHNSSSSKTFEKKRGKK

[3] = molecular target: T2, TGFBR1 (Homo sapiens, UniProt P36897); details: read-out: Remaining protein kinase activity
T2 sequence (P36897 34-503): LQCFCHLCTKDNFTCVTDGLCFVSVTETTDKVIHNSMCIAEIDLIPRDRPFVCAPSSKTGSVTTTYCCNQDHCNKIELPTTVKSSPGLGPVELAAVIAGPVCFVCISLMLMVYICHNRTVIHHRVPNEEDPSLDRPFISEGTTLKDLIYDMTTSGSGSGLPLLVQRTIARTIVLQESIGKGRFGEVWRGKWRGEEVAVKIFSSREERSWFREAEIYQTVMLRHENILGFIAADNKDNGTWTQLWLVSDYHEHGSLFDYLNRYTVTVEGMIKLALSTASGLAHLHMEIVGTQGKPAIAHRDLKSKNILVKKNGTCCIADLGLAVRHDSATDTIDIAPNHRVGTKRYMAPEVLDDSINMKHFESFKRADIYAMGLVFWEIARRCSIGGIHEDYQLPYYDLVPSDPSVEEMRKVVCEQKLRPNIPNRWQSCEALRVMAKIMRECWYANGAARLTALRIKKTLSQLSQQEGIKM

[4] = molecular target: T3, EPH-B3 (Homo sapiens, UniProt P54753); details: read-out: Remaining protein kinase activity
T3 sequence (P54753 34-998): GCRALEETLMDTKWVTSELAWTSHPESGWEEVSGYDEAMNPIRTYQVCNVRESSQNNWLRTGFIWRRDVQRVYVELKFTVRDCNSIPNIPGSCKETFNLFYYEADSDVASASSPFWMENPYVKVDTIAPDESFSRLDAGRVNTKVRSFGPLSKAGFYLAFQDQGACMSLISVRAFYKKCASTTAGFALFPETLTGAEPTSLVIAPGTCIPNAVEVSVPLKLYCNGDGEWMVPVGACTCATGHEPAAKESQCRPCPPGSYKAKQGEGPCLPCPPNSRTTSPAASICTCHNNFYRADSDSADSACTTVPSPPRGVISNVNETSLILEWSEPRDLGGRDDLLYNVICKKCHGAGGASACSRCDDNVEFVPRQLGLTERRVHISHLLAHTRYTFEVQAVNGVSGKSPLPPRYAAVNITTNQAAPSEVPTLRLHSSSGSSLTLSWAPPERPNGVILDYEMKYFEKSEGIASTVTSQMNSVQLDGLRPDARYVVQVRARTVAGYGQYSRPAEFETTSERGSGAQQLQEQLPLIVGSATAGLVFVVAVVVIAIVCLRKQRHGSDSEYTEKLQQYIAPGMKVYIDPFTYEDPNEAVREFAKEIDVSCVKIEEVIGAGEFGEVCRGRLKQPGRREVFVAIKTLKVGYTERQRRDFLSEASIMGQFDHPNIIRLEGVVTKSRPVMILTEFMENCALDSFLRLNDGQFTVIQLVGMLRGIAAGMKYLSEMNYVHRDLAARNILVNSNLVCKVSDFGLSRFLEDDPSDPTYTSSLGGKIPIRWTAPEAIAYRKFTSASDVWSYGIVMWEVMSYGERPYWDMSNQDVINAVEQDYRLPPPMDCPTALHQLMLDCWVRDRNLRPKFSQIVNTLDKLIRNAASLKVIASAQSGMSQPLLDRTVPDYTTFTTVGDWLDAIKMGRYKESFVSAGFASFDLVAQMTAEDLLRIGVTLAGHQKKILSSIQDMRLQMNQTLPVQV

[5] = molecular target: MINK1 (Homo sapiens, UniProt Q8N4C8); details: read-out: Remaining protein kinase activity
MINK1, sequence (Q8N4C8 whole entry): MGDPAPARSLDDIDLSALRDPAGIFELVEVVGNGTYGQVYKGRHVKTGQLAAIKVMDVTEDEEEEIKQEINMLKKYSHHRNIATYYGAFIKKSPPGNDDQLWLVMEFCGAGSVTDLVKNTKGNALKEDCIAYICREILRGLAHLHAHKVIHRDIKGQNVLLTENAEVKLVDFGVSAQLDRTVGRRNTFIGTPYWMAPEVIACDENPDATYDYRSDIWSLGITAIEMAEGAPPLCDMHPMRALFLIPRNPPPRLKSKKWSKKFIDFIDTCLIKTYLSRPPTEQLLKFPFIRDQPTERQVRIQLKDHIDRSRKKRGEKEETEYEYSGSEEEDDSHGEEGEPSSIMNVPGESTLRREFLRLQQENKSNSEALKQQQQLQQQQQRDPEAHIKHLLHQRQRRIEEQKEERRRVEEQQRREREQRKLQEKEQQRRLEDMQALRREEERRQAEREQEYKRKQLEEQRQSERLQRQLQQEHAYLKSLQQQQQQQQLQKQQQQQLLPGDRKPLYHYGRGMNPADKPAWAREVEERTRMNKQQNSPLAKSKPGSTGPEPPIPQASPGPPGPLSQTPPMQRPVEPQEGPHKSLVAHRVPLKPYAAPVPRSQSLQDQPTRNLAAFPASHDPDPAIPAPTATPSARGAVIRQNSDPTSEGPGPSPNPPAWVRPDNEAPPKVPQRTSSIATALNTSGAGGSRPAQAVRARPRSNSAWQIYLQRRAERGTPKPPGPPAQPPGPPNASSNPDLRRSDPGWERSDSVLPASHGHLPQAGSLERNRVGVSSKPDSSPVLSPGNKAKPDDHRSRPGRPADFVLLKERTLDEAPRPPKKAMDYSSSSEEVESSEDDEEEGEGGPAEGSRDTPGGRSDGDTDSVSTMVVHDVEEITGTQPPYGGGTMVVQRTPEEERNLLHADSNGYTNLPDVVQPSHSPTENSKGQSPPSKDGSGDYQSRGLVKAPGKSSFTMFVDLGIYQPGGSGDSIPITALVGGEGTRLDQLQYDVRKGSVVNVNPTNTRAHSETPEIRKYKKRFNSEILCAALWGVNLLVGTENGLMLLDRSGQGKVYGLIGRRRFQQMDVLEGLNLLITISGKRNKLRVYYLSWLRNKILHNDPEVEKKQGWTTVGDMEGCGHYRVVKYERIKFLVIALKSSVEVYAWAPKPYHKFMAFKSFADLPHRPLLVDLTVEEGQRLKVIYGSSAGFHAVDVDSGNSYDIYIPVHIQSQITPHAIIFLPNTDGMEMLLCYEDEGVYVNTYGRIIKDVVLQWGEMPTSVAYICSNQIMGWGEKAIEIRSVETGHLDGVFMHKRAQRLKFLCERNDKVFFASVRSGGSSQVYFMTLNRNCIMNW

[6] = molecular target: BTK (Homo sapiens, UniProt Q06187)
BTK, sequence (Q06187 whole entry): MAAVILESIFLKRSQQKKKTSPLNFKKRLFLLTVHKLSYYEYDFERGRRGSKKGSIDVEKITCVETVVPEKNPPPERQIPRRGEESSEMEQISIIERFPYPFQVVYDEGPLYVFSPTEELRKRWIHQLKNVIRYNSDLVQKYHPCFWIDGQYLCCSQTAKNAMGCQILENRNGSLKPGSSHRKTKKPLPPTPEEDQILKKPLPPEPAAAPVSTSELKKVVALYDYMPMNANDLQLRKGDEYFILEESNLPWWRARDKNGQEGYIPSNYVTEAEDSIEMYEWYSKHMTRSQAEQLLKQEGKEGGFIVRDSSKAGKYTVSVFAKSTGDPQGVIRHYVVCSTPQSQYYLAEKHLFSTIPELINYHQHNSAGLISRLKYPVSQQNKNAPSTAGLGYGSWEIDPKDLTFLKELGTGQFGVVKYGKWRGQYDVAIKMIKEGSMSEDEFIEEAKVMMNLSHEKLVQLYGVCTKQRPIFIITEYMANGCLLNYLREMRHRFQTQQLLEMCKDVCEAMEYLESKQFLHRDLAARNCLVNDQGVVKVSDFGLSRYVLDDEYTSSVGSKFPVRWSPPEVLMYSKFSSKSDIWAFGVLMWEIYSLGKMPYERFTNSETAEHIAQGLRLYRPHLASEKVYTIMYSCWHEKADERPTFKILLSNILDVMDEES

CSK, sequence (P41240 whole entry): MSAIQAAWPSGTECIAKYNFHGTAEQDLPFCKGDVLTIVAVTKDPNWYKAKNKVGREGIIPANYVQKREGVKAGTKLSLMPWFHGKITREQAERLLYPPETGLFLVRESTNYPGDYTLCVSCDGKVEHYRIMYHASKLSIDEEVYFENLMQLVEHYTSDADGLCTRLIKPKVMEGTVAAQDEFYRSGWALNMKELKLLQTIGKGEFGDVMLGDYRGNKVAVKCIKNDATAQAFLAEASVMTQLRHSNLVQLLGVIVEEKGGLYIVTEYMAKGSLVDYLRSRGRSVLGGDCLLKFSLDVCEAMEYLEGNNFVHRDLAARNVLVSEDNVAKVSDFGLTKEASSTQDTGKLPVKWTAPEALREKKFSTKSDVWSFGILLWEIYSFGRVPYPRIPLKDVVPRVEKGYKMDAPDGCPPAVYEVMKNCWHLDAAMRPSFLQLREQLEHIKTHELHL

| SMILES | Remaining protein kinase activity ([1]; 1 μM) [%] | Remaining protein kinase activity ([1]; 100 μM) [%] | remaining activity at 1 µM [2] [%] | remaining activity at 100 µM [2] [%] | remaining activity at 1 µM [3] [%] | remaining activity at 100 µM [3] [%] | remaining activity at 1 µM [4] [%] | remaining activity at 100 µM [4] [%] | remaining activity at 1 µM [5] [%] | remaining activity at 100 µM [5] [%] | Remaining protein kinase activity ([6]; 1 μM) [%] | Remaining protein kinase activity ([6]; 100 μM) [%] | remaining activity at 1 µM ([2]; TTK, 1 μM) [%] | remaining activity at 100 µM ([2]; TTK, 100 μM) [%] | remaining activity at 1 µM ([3]; TGFBR1, 1 μM) [%] | remaining activity at 100 µM ([3]; TGFBR1, 100 μM) [%] | remaining activity at 1 µM ([4]; EPH-B3, 1 μM) [%] | remaining activity at 100 µM ([4]; EPH-B3, 100 μM) [%] | remaining activity at 1 µM ([5]; MINK1, 1 μM) [%] | remaining activity at 100 µM ([5]; MINK1, 100 μM) [%] |
| --- | --- | --- | --- | --- | --- | --- | --- | --- | --- | --- | --- | --- | --- | --- | --- | --- | --- | --- | --- | --- |
| COc1ccc2sc(-c3cncc(NC(C)=O)c3)nc2c1 [PST-001, N-(5-(5-Methoxybenzo[d]thiazol-2-yl)pyridin-3-yl)acetamide] | 121 | 126 | 88 | 69 | 112 | 129 | 147 | 130 | 104 | 88 | 92 | 86 | – | – | – | – | – | – | – | – |
| COc1ccc2sc(-c3cncc(N)c3)nc2c1 [compound 1, 5-(5-Methoxybenzo[d]thiazol-2-yl)pyridin-3-amine] | 116 | 78 | – | – | – | – | – | – | – | – | 101 | 31 | 86 | 47 | 105 | 118 | 130 | 71 | 108 | 36 |
